Our source for the Amount dissolved and solubility in water values is patent publication US20120088774A1, “ACTIVE PHARMACEUTICAL INGREDIENT ADSORBED ON SOLID SUPPORT” (LEK PHARMACEUTICALS D.D., priority 2009, published 2012).

Series [1] can be described thus: Dissolution of crystalline tadalafil, tadalafil adsorbate and precipitates on carriers. In kind it is physicochemical. To be noted: 20 mM phosphate buffer pH 6.9. As for the experimental part:
The carriers comprising tadalafil have been prepared as described in example 1.
0.1 g of tadalafil was dissolved in 20 ml of dichloromethane. 5 ml of the resulting solution was added to 0.25 g of a solid support (Aerosil® 380, Al2O3, MgO, TiO2). Subsequently the solvent was removed by evaporation.

The conditions of series [2]: crystalline solid; term defined as less or equal to 0.1 mg/ml; cited from earlier work.
Series [3] in a line: Dissolution of crystalline lovastatin and lovastatin adsorbate in 0.02M hydrochloric acid. In kind it is physicochemical. Here is the method: 0.2 g of lovastatin was dissolved in a mixture of 10 ml trichloromethane and 40 ml diisopropyl ether. 2 g of a the SYLOID® AL1 was added to the solution. Subsequently the solvent was removed by evaporation.
Series [4] can be described thus: Dissolution of crystalline simvastatin and simvastatin adsorbate in 0.02M hydrochloric acid. In kind it is physicochemical. Here is the method:
0.2 g of simvastatin was dissolved in 50 ml of dichloromethane. 2 g of a the SYLOID® AL1 was added to the solution. Subsequently the solvent was removed by evaporation. The sample was analysed using X-ray powder diffraction (XRPD). Using XRPD it was confirmed that the API in the product was amorphous. The use of dichloromethane as the solvent for simvastatin and SYLOID® AL1 as the carrier gives the adsorbate according to the invention.

`CN1CC(=O)N2[C@H](c3ccc4c(c3)OCO4)c3[nH]c4ccccc4c3C[C@@H]2C1=O` [Crystalline tadalafil, (6R,12aR)-6-(1,3-Benzodioxol-5-yl)-2,3,6,7,12,12a-hexahydro-2-methyl-pyrazino[1′,2′:1,6]pyrido[3,4-b]indole-1,4-dione]: the Amount dissolved in series [1] (2 min) came out at 2.9 µg/mL; in series [1] (5 min), 14.6 µg/mL; in series [1] (10 min), 24.2 µg/mL; in series [1] (15 min), 27.0 µg/mL; in series [1] (25 min), 32.9 µg/mL; in series [1] (40 min), 34.4 µg/mL. For the same molecule, the solubility in water entry in series [2] was “practically insoluble in water”.
Consider `CC[C@H](C)C(=O)O[C@H]1C[C@@H](C)C=C2C=C[C@H](C)[C@H](CC[C@@H]3C[C@@H](O)CC(=O)O3)[C@H]21` [Crystalline lovastatin, lovastatin], for which the Amount dissolved in series [3] (2 min) is 0.298 µg/mL; in series [3] (5 min), 0.403 µg/mL; in series [3] (10 min) it was 0.418 µg/mL; in series [3] (15 min), 0.501 µg/mL; in series [3] (25 min) it was 0.625 µg/mL; in series [3] (40 min), 0.523 µg/mL. Further, the Amount dissolved is 0.62 µg/mL in series [3] (60 min); 0.848 µg/mL in series [4] (2 min); 1.667 µg/mL in series [4] (5 min); 1.853 µg/mL in series [4] (10 min); 1.859 µg/mL in series [4] (15 min); 2.031 µg/mL in series [4] (25 min). Also, the Amount dissolved in series [4] (40 min) came out at 2.145 µg/mL; in series [4] (60 min), 2.175 µg/mL.
